Data reported in patent publication US20230000936A1, “A[…] ITCHING […] C[…]” (Demetrix, Inc., priority 2021, published 2023).
“Also recorded” adds a separate entry of the source.

What was measured:
Assay type in all cases: cell-based
CHRM2 [1] = biological target: T1, CHRM2 (Homo sapiens, UniProt P08172); experiment: GPCR reactivity screen, PathHunter β-Arrestin, agonist assay CHRM2; parameters: concentration or dose not given beside the values; conditions: agonist mode; control acetylcholine
T1 sequence (P08172 1-466): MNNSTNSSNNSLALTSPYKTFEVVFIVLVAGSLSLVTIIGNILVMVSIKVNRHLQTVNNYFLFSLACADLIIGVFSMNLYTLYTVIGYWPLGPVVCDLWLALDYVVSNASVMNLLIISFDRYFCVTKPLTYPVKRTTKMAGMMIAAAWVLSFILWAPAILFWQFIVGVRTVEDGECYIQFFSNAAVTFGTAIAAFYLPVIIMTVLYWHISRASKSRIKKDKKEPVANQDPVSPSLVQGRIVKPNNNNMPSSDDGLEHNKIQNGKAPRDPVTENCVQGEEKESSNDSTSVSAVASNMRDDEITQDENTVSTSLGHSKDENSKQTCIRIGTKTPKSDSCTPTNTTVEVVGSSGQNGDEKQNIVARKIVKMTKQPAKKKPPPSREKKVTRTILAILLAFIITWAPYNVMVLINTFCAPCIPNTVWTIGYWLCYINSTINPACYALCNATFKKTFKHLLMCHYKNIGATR
Experimental: (§1) To evaluate the role specific cannabinoid compounds play in the neurological signaling pathway for itching, a GPCR reactivity assay was performed to determine the reactivity of 19 cannabinoid compounds to each of CHRM2, EDG3, and MRGPRX2. The evaluated cannabinoid compounds were: CBN, THCV, CBDVA, CBG, CBL, CBC, CBDV, CBDA, CBD, CBGA, (+)-CBD, CBG-C4, CBD-C1, CBD-C2, CBGV, CBGA-C4, CBGVA, CBCA, and CBLA. Acetylcholine was used as the control for CHRM2, sphingosine-1-phosphate was used as the control for EDG3; and cortistatin 14 was used as the control for MRGPRX2.
(§2) A total of six assays were run. Specifically, agonist and antagonist assays were run for each of CHRM2, EDG3, and MRGPRX2. In each of the three agonist assays, PathHunter® cell lines were removed from a freezer stock and seeded at a volume of 20 μL into white walled, 384-well microplates and incubated at 37° C. Each cell was incubated with a sample to induce a response and then diluted to generate a 5× sample in assay buffer. 5 μL of the 5× sample was then added to cells and incubated at 37° C. for 90 or 180 minutes. The final assay concentration was 1%. The assay signal was generated through addition of 12.5 μL or 15 μL (50% V/V) of a detection reagent cocktail followed by a one hour incubation time at room temperature. Microplates were read following signal generation with a PerkinElmer Envision™ (PerkinElmer Inc., Waltham, Mass.) for chemiluminescent signal detection. Reactivity was analyzed using the CBIS data analysis suite (ChemInnovation, CA) where RLU refers to the raw measured values. The percent activity was then calculated using the formula: % Activity=100%*(mean RLU of test sample−mean RLU of control)/(mean max control ligand−mean RLU of vehicle control).
(§3) As used herein, strong activity against a receptor is considered a percent activity of about 42% or higher. Higher results for antagonism against CHRM2, EDGE, and MRGPRX2 are considered better. It is further considered better when a cannabinoid inhibits more than one of the receptors.

CHRM2 [2] = biological target: T1, CHRM2; experiment: GPCR reactivity screen, PathHunter β-Arrestin, antagonist assay CHRM2; conditions: for antagonist activity against CHRM2 (in words): GPCR reactivity screen; for CHRM2 (Antagonist) percent inhibition: antagonist mode, agonist challenge at EC80
Experimental: as §1
(§4) In each of the antagonist assays, PathHunter® cell lines were removed from a freezer stock and seeded at a volume of 20 μL into white walled, 384-well microplates and incubated at 37° C. Each cell was pre-incubated with an antagonist followed by an agonist challenge at the EC80 concentration. Cells were then diluted to generate a 5× sample in assay buffer. 5 μL of the 5× sample was then added to cells and incubated at 37° C. for 30 minutes. Finally, 5 μL of 6×EC80 agonist in assay buffer were added to the cells and incubated at 37° C. for 90 minutes or 180 minutes. The assay signal was generated through addition of 12.5 μL or 15 μL (50% V/V) of a detection reagent cocktail followed by a one hour incubation time at room temperature. Microplates were read following signal generation with a PerkinElmer Envision™ (PerkinElmer Inc., Waltham, Mass.) for chemiluminescent signal detection. Reactivity was analyzed using the CBIS data analysis suite (ChemInnovation, CA) where RLU refers to the raw measured values. The percent inhibition was calculated using the formula: % Inhibition=100%*(1−mean RLU of test sample−mean RLU of control)/(mean RLU of EC80 control−mean RLU of vehicle control).
as §3

EDG3 [3] = biological target: T2, EDG3 (Homo sapiens, UniProt Q99500); experiment: GPCR reactivity screen, PathHunter β-Arrestin, agonist assay EDG3; parameters: concentration or dose not given beside the values; conditions: agonist mode; control sphingosine-1-phosphate
Experimental: as §1, §2, §3

EDG3 [4] = biological target: T2, EDG3; experiment: GPCR reactivity screen, PathHunter β-Arrestin, antagonist assay EDG3; conditions: for antagonist activity against EDG3 (in words): GPCR reactivity screen; for EDG3 (Antagonist) percent inhibition: antagonist mode, agonist challenge at EC80
Experimental: as §1, §4, §3

MRGPRX2 [5] = biological target: T3, MRGPRX2 (Homo sapiens, UniProt Q96LB1); experiment: GPCR reactivity screen, PathHunter β-Arrestin, agonist assay MRGPRX2; conditions: agonist mode; control cortistatin 14
T3 sequence (Q96LB1 1-330): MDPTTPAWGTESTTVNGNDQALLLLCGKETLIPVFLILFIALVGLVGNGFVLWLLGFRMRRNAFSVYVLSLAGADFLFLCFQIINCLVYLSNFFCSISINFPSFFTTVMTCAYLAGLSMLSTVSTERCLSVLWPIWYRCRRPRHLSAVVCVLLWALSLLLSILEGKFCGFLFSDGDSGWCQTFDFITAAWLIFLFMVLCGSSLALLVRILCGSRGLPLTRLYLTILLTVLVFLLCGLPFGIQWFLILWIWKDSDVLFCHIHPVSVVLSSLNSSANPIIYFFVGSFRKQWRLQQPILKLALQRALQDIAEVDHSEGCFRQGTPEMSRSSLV
Experimental: as §1, §2, §3

MRGPRX2 [6] = biological target: T3, MRGPRX2; experiment: GPCR reactivity screen, PathHunter β-Arrestin, antagonist assay MRGPRX2; conditions: for antagonist activity against MRGPRX2 (in words): GPCR reactivity screen; for MRGPRX2 (Antagonist) percent inhibition: antagonist mode, agonist challenge at EC80
Experimental: as §1, §4, §3

MRGPRX2 [7] = biological target: T3, MRGPRX2; experiment: IC50 antagonist activity screen, PathHunter β-Arrestin, MRGPRX2; conditions: maximum of IC50 curve
Experimental: as §4
as §3, with “IC50 curves were measured using the same GPCR assay, PathHunter® β-Arrestin from Eurofins DiscoverX Products (Fremont, Calif.), as the GPCR reactivity screen. As” for “As”, “maximum” for “percent”

T2 sequence (Q99500 whole entry): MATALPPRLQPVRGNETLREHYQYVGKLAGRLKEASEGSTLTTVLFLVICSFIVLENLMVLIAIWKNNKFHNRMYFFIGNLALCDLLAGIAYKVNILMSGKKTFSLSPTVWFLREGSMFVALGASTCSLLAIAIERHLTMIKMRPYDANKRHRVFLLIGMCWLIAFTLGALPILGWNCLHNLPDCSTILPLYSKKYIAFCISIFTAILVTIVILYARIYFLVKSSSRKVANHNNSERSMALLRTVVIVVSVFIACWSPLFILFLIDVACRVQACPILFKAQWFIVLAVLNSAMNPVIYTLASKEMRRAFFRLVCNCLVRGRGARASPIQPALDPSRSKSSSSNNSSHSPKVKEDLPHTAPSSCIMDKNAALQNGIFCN

Row | Compound | CHRM2 (Agonist) percent activity (CHRM2 [1]) | antagonist activity against CHRM2 (in words) (CHRM2 [2]) | CHRM2 (Antagonist) percent inhibition (CHRM2 [2]) | EDG3 (Agonist) percent activity (EDG3 [3]) | antagonist activity against EDG3 (in words) (EDG3 [4]) | EDG3 (Antagonist) percent inhibition (EDG3 [4]) | MRGPRX2 (Agonist) percent activity (MRGPRX2 [5]) | antagonist activity against MRGPRX2 (in words) (MRGPRX2 [6]) | MRGPRX2 (Antagonist) percent inhibition (MRGPRX2 [6]) | maximum inhibition (antagonism) MRGPRX2 (MRGPRX2 [7])
1 | C=C(C)[C@@H]1CCC(C)=C[C@H]1c1c(O)cc(C)cc1O [CBD-C1, cannabidiorcol] | −1% | do not exhibit an antagonistic effect; also recorded: did not exhibit antagonistic effects | 2% | 1% | do not exhibit an antagonistic effect; also recorded: did not exhibit antagonistic effects | 13% | 1% | do not exhibit an antagonistic effect; also recorded: did not exhibit antagonistic effects | 12% | 
2 | C=C(C)[C@@H]1CCC(C)=C[C@H]1c1c(O)cc(CC)cc1O [CBD-C2, cannabidol-C2] | 1% | do not exhibit an antagonistic effect; also recorded: did not exhibit antagonistic effects | 21% | 1% | do not exhibit an antagonistic effect; also recorded: did not exhibit antagonistic effects | 20% | 1% | do not exhibit an antagonistic effect; also recorded: did not exhibit antagonistic effects | 31% | 43%
3 | C=C(C)[C@@H]1CCC(C)=C[C@H]1c1c(O)cc(CCCCC)c(C(=O)O)c1O [CBDA, cannabidiolic acid] | 1% | do not exhibit an antagonistic effect | −10% | −1% | do not exhibit an antagonistic effect | 5% | 4% | do not exhibit an antagonistic effect | 8% | 
4 | C=C(C)[C@@H]1CCC(C)=C[C@H]1c1c(O)cc(CCC)c(C(=O)O)c1O [CBDVA, cannabidivarinic acid] | 2% | do not exhibit an antagonistic effect | 2% | −3% | do not exhibit an antagonistic effect | 13% | 5% | do not exhibit an antagonistic effect | −8% | 
5 | CCCCc1cc(O)c(CC=C(C)CCC=C(C)C)c(O)c1 [CBG-C4, cannabigerol butyl] | 0% |  | 13% | 3% |  | 28% | 3% | antagonist activity | 94% | 85%
6 | CCCCCc1cc(O)c(C/C=C(\C)CCC=C(C)C)c(O)c1C(=O)O [CBGA, cannabigerolic acid] | −3% | do not exhibit an antagonistic effect | 12% | 2% | do not exhibit an antagonistic effect | 12% | 0% | do not exhibit an antagonistic effect | 17% | 
7 | CCCCc1cc(O)c(C/C=C(\C)CCC=C(C)C)c(O)c1C(=O)O [CBGA-C4, cannabigerolic acid butyl] | −4% | do not exhibit an antagonistic effect | 19% | 0% | do not exhibit an antagonistic effect | 16% | −1% | do not exhibit an antagonistic effect | 20% | 
8 | CCCc1cc(O)c(C/C=C(\C)CCC=C(C)C)c(O)c1 [CBGV, cannabigerivarin] | 0% |  | 28% | 2% |  | 29% | 1% | antagonist activity | 95% | 76%
9 | CCCc1cc(O)c(C/C=C(\C)CCC=C(C)C)c(O)c1C(=O)O [CBGVA, cannabigerovarinic acid] | −4% | do not exhibit an antagonistic effect | 23% | −1% | do not exhibit an antagonistic effect | 9% | −1% | do not exhibit an antagonistic effect | 7% | 
10 | CCCCCc1cc2c(c(O)c1C(=O)O)C1C3C(CCC3(C)O2)C1(C)C (stereo not drawn) [CBLA, cannabicyclolic acid] | −4% |  | −19% | 3% |  | 19% | 2% |  | 36% | 44%
